Results taken from PMC5862592, “CDK8/19 inhibition induces premature G1/S transition and ATR-dependent cell death in prostate cancer cells” (Oncotarget, 2018).
Like-named read-outs stand apart in the source and are kept apart here.

Legend:
Assay in all cases: biochemical
Parameters in all cases: KINOMEscan active site-directed competition binding assay (DiscoveRx), 456 kinases, per cent of control at 300 nM
Details in all cases: read-out: Percent of Control (%)
[1] = target: T1, ABL1(F317L)-nonphosphorylated (Homo sapiens, UniProt P00519, F317L)
T1 construct: nonphosphorylated
Method in brief: (§1)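 Compounds at 300 nmol/L screened against 456 kinases by KINOMEscan, a competition binding assay measuring displacement at the kinase active site.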

BMPR1A = BMPR1A (Homo sapiens, UniProt P36894)
Method in brief: as §1

CSNK1A1 = CSNK1A1 (Homo sapiens, UniProt P48729)
Sequence of CSNK1A1 (P48729 whole entry): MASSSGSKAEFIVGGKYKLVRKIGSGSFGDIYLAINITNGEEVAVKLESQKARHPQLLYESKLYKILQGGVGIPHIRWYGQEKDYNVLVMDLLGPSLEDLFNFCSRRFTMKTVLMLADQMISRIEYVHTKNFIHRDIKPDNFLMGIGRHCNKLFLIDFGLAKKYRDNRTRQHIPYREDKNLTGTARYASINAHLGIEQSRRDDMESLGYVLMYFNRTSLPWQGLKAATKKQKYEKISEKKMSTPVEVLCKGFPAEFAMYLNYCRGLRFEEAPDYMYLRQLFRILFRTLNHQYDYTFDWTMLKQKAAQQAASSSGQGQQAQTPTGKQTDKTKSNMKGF
Method in brief: as §1

CTK = target: T2, CTK (Homo sapiens, UniProt P42679)
T2 construct: gene MATK
T2 sequence (P42679 whole entry): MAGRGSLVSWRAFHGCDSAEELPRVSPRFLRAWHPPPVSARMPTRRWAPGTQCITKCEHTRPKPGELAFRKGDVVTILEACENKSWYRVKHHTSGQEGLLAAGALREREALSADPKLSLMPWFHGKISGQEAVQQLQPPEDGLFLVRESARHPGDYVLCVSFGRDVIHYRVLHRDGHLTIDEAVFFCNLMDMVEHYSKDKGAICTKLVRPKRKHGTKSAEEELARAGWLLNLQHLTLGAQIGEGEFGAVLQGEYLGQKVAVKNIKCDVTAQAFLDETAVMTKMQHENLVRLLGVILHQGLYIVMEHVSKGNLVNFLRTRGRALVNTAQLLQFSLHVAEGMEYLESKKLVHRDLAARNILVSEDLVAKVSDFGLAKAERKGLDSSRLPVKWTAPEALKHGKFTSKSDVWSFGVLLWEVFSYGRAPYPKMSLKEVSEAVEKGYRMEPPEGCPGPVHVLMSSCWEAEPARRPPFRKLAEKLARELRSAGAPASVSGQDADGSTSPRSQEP
Method in brief: as §1

DYRK1A = DYRK1A (Homo sapiens, UniProt Q13627)
Method in brief: as §1

EGFR(E746-A750del) = EGFR(E746-A750del) (Homo sapiens, UniProt P00533, DEL746-750)
Method in brief: as §1

[2] = target: EGFR(L747-E749del, A750P) (Homo sapiens, UniProt P00533, A750P/DEL747-749)
Sequence of EGFR(L747-E749del, A750P) (P00533 with tags, fused parts or gaps DEL747-749/A750P): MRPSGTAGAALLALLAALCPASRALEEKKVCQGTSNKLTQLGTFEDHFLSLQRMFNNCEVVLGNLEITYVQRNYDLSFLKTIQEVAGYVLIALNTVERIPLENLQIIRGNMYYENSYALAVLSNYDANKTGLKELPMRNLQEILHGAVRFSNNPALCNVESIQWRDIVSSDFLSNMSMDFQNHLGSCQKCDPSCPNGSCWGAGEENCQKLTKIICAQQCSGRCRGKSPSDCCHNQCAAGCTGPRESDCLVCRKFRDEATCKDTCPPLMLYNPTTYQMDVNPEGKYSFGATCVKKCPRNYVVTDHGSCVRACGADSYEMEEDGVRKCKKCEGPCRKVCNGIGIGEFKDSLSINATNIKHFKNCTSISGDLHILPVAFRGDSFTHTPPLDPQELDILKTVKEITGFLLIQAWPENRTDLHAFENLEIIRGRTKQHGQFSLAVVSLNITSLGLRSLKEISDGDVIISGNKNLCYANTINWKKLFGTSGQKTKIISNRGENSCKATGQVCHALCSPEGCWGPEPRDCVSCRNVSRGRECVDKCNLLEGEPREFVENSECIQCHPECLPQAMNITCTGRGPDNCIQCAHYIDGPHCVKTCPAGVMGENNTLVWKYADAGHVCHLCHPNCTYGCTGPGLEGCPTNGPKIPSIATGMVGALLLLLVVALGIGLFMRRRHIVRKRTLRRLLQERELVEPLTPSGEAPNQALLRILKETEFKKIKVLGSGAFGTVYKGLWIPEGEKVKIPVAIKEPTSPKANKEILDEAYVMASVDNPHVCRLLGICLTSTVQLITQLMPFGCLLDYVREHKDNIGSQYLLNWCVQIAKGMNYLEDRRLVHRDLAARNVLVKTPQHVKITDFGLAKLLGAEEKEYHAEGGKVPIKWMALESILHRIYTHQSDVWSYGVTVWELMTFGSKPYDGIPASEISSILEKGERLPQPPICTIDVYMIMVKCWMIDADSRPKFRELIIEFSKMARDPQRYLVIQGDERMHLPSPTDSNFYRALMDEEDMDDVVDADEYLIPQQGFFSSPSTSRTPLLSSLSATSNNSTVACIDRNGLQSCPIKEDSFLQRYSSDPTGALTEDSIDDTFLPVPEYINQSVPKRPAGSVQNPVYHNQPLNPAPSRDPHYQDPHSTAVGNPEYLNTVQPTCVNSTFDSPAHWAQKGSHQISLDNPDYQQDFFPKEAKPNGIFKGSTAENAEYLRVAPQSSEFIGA
Method in brief: as §1

FLT1 = FLT1 (Homo sapiens, UniProt P17948)
Method in brief: as §1

FLT3(D835Y) = FLT3(D835Y) (Homo sapiens, UniProt P36888, D835Y)
Method in brief: as §1

HIPK1 = HIPK1 (Homo sapiens, UniProt Q86Z02)
Method in brief: as §1

MAK = MAK (Homo sapiens, UniProt P20794)
Sequence of MAK (P20794 whole entry): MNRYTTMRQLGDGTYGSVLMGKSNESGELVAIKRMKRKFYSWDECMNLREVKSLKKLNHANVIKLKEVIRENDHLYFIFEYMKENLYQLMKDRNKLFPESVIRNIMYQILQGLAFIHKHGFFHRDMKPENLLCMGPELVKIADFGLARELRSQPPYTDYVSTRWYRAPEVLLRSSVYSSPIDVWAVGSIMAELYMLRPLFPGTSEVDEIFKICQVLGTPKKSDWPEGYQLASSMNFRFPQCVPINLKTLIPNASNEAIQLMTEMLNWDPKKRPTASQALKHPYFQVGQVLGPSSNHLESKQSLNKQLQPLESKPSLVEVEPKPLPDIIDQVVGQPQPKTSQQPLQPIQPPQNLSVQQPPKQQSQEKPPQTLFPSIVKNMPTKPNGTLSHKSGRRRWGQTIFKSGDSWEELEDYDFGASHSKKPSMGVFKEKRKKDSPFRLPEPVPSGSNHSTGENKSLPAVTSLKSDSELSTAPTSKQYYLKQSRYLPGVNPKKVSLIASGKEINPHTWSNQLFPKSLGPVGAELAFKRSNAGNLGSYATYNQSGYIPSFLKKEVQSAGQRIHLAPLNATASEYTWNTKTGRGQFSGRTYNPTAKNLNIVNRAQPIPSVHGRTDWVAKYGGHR
Method in brief: as §1

MEK4 = target: T3, MEK4 (Homo sapiens, UniProt P45985)
T3 construct: gene MAP2K4
T3 sequence (P45985 whole entry): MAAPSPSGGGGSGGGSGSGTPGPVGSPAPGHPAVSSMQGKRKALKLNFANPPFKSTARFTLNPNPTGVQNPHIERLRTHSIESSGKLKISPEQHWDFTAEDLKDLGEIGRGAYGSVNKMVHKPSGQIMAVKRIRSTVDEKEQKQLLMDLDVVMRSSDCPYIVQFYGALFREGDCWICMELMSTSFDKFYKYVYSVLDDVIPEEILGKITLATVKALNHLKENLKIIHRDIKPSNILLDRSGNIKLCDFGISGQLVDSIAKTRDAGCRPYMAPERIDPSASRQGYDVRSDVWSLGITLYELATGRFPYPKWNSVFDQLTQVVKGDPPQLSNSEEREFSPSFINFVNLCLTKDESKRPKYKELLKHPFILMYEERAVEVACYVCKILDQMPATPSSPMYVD
Method in brief: as §1

MELK = MELK (Homo sapiens, UniProt Q14680)
Sequence of MELK (Q14680 whole entry): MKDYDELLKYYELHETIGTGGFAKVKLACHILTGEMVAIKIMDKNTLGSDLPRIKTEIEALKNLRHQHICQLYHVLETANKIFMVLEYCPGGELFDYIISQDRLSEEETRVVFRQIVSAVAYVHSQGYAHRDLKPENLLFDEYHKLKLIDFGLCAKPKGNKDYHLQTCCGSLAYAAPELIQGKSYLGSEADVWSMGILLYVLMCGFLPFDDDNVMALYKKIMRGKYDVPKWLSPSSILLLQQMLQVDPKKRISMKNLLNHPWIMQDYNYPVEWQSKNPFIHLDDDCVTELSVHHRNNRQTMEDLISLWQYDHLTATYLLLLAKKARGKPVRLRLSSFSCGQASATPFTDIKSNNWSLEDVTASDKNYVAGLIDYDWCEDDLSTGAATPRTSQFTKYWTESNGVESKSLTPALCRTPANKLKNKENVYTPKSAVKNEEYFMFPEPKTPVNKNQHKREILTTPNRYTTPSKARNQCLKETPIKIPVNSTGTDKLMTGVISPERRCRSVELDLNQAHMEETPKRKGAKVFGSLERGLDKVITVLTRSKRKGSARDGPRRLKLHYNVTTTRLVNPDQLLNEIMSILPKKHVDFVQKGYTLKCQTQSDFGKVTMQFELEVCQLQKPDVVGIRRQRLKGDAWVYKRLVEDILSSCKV
Method in brief: as §1

MRCKB = target: T4, MRCKB (Homo sapiens, UniProt Q9Y5S2)
T4 construct: gene CDC42BPB
Method in brief: as §1

MTOR = MTOR (Homo sapiens, UniProt P42345)
Method in brief: as §1

NEK3 = NEK3 (Homo sapiens, UniProt P51956)
Method in brief: as §1

PDGFRA = PDGFRA (Homo sapiens, UniProt P16234)
Method in brief: as §1

QSK = target: T5, QSK (Homo sapiens, UniProt Q9Y2K2)
T5 construct: gene SIK3
T5 sequence (Q9Y2K2 whole entry): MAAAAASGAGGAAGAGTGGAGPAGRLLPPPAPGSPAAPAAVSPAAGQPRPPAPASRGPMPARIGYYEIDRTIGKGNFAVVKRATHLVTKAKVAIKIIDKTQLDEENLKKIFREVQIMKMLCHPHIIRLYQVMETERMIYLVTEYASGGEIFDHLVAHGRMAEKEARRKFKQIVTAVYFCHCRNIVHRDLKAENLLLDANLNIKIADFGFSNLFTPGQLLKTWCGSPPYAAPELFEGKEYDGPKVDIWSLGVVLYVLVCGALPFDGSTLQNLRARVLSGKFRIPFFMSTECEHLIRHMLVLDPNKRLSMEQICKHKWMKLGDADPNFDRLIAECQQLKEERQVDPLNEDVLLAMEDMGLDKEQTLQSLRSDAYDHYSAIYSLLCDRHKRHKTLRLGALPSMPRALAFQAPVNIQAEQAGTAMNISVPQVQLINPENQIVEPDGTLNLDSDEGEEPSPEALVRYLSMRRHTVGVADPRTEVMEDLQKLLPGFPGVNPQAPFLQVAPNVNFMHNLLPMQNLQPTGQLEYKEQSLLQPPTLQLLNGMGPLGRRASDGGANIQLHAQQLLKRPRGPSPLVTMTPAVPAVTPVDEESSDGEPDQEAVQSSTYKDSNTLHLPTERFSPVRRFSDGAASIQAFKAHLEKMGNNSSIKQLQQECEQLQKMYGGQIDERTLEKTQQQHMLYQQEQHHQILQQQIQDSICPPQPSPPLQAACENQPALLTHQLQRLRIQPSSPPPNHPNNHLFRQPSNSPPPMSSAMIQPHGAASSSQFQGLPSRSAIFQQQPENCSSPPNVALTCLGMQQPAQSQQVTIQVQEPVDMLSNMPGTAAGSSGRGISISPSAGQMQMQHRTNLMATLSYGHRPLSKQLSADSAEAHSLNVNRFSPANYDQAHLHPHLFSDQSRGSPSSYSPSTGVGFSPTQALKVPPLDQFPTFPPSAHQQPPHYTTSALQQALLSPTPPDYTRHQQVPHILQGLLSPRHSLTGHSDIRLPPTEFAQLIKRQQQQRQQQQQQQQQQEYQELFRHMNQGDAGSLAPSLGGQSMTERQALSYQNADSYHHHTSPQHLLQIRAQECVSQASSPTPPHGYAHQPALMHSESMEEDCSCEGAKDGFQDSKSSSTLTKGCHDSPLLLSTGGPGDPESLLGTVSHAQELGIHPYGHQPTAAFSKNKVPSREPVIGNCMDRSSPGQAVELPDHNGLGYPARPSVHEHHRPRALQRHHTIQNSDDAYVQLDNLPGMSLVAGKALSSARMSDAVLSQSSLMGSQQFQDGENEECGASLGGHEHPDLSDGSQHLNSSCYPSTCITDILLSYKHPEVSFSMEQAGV
Method in brief: as §1

[3] = target: T6, RSK3(Kin.Dom.2-C-terminal) (Homo sapiens, UniProt Q15349)
T6 construct: gene RPS6KA2; Kin.Dom.2-C-terminal
Method in brief: as §1

TGFBR2 = TGFBR2 (Homo sapiens, UniProt P37173)
Method in brief: as §1

YSK1 = target: T7, YSK1 (Homo sapiens, UniProt O00506)
T7 construct: gene STK25
Method in brief: as §1

O=C(/C=C/c1cnccc1-c1ccc(F)cc1)Nc1ccc(CCc2nnco2)cc1 [T-418, (2E)-3-(4-(4-fluorophenyl)pyridin-3-yl)-N-(4-(2-(1,3,4-oxadiazol-2-yl)ethyl)phenyl)acrylamide]
remaining binding at 0.3 µM ([1]; sheet T-418): 100% | remaining binding at 0.3 µM (BMPR1A; sheet T-418): 79% | remaining binding at 0.3 µM (CSNK1A1; sheet T-418): 100% | remaining binding at 0.3 µM (CTK; sheet T-418): 100% | remaining binding at 0.3 µM (DYRK1A; sheet T-418): 100% | remaining binding at 0.3 µM (EGFR(E746-A750del); sheet T-418): 92% | remaining binding at 0.3 µM ([2]; sheet T-418): 58% | remaining binding at 0.3 µM (FLT1; sheet T-418): 100% | remaining binding at 0.3 µM (FLT3(D835Y); sheet T-418): 100% | remaining binding at 0.3 µM (HIPK1; sheet T-418): 75% | remaining binding at 0.3 µM (MAK; sheet T-418): 100% | remaining binding at 0.3 µM (MEK4; sheet T-418): 100% | remaining binding at 0.3 µM (MELK; sheet T-418): 100% | remaining binding at 0.3 µM (MRCKB; sheet T-418): 100% | remaining binding at 0.3 µM (MTOR; sheet T-418): 100% | remaining binding at 0.3 µM (NEK3; sheet T-418): 100% | remaining binding at 0.3 µM (PDGFRA; sheet T-418): 97% | remaining binding at 0.3 µM (QSK; sheet T-418): 95% | remaining binding at 0.3 µM ([3]; sheet T-418): 100% | remaining binding at 0.3 µM (TGFBR2; sheet T-418): 84% | remaining binding at 0.3 µM (YSK1; sheet T-418): 97%

Cc1ncccc1Oc1sc(C(N)=O)c2c1-c1c(cnn1C)CC2 [T-474, 1-methyl-8-((2-methylpyridin-3-yl)oxy)-4,5-dihydro-1H-thieno[3,4-g]indazole-6-carboxamide]
remaining binding at 0.3 µM [1]: 100% | remaining binding at 0.3 µM (BMPR1A): 100% | remaining binding at 0.3 µM (CSNK1A1): 98% | remaining binding at 0.3 µM (CTK): 100% | remaining binding at 0.3 µM (DYRK1A): 66% | remaining binding at 0.3 µM (EGFR(E746-A750del)): 87% | remaining binding at 0.3 µM [2]: 68% | remaining binding at 0.3 µM (FLT1): 100% | remaining binding at 0.3 µM (FLT3(D835Y)): 60% | remaining binding at 0.3 µM (HIPK1): 81% | remaining binding at 0.3 µM (MAK): 98% | remaining binding at 0.3 µM (MEK4): 100% | remaining binding at 0.3 µM (MELK): 71% | remaining binding at 0.3 µM (MRCKB): 100% | remaining binding at 0.3 µM (MTOR): 82% | remaining binding at 0.3 µM (NEK3): 100% | remaining binding at 0.3 µM (PDGFRA): 96% | remaining binding at 0.3 µM (QSK): 93% | remaining binding at 0.3 µM [3]: 100% | remaining binding at 0.3 µM (TGFBR2): 78% | remaining binding at 0.3 µM (YSK1): 94%
